Our source for the Aminopeptidase activity values is US4994376A, “Detection of bacteroides gingivalis” (priority 1987, dated 1991).

Common to all, as to type: biochemical
Test [1] relates to Capnocytophaga gingivalis. As to conditions: strain ATCC 33624; β-naphthylamine liberated after 60 minutes, 37° C. The method, boiled down:
(§1)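 N-CBz-glycyl-glycyl-L-arginine-β-naphthylamide was hydrolysed for 1 hour at 37 °C, then coupled with Fast Garnet GBC (0.5 mg/ml) in 1M acetic acid buffer, pH 4.2, containing 10% Tween 20. After 15 minutes at room temperature, absorbance was read at 525 nm against a no-enzyme blank; activity is given as nmol β-naphthylamine released per 60 min.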

In another test the test system is B. mel. ss. intermedius. The settings on record: β-naphthylamine liberated after 60 minutes, 37° C. The method, boiled down: as §1
The next test deals with B. loescheii. As to conditions: β-naphthylamine liberated after 60 minutes, 37° C. The method, boiled down:
as §1

The next test deals with B. asaccharolyticus. As to conditions: β-naphthylamine liberated after 60 minutes, 37° C. The method, boiled down: as §1
The next test concerns Veillonella alcalesens. The test can be described thus: Aminopeptidase activity on β-naphthylamide substrates. The settings on record: strain ATCC 11748; β-naphthylamine liberated after 60 minutes, 37° C. The method, boiled down: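 Aminopeptidase values express the nanomoles of β-naphthylamine freed from N-CBz-glycyl-glycyl-L-arginine-β-naphthylamide during a 60-minute, 37° C incubation. The liberated amine was coupled with stabilized diazonium salt Fast Garnet GBC and measured at 525 nm against an enzyme-free blank.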

Molecules are shown by their SMILES. Read-outs that look alike come from different tables or passages of the source. Peptide text beside a SMILES is read from it. * marks the point of attachment. βNA = c1ccc2cc(N*)ccc2c1

As for `Cl.N=C(N)NCCC[C@H](NC(=O)CNC(=O)CNC(=O)OCc1ccccc1)C(=O)Nc1ccc2ccccc2c1` [N-CBz-Gly-Gly-Arg, N-carbobenzoxy-glycyl-glycyl-L-arginine-β-naphthylamide hydrochloride], the Aminopeptidase activity in test [1] turned out to be 7 nmol; in the test on B. mel. ss. intermedius (strain ATCC 25261) it was 0 nmol; in the test with B. mel. ss. intermedius (strain ATCC 33563), 1 nmol; in the test with B. mel. ss. intermedius (strain NCTC 9336), 1 nmol; in the test with B. loescheii (strain ATCC 15930), 1 nmol; with B. loescheii (strain VPI4196), 0 nmol. For the same compound, the Aminopeptidase activity in the test with B. asaccharolyticus (strain 536B) was 1 nmol; with B. asaccharolyticus (strain ATCC 18569) it was 0 nmol; with B. asaccharolyticus (strain ATCC 25260), 0 nmol; in the test with B. asaccharolyticus (strain ATCC 27067), 0 nmol; in the test on B. asaccharolyticus (strain NY446) it was 2 nmol; in the test on Veillonella alcalesens, 0 nmol.

For `C[C@H](N)C(=O)N[C@@H](C)C(=O)N[C@@H](Cc1ccccc1)C(=O)Nc1ccc2ccccc2c1` [Ala-Ala-Phe] (H-Ala-Ala-Phe-βNA), the Aminopeptidase activity in test [1] is 72 nmol; with B. mel. ss. intermedius (strain ATCC 25261), 0 nmol; in the test with B. mel. ss. intermedius (strain ATCC 33563), 0 nmol; in the test with B. mel. ss. intermedius (strain NCTC 9336), 0 nmol; with B. loescheii (strain ATCC 15930) it was 1 nmol; with B. loescheii (strain VPI4196) it was 0 nmol. In addition, the Aminopeptidase activity in the test with B. asaccharolyticus (strain 536B) amounted to 0 nmol; in the test on B. asaccharolyticus (strain ATCC 18569), 0 nmol; with B. asaccharolyticus (strain ATCC 25260), 0 nmol; with B. asaccharolyticus (strain ATCC 27067), 0 nmol; with B. asaccharolyticus (strain NY446), 0 nmol; with Veillonella alcalesens, 1 nmol.

As for `CC(C)C[C@H](NC(=O)[C@@H]1CCCN1C(=O)CN)C(=O)Nc1ccc2ccccc2c1` [Gly-Pro-Leu] (H-Gly-Pro-Leu-βNA), the Aminopeptidase activity in test [1] is 58 nmol; in the test on B. mel. ss. intermedius (strain ATCC 25261), 1 nmol; in the test with B. mel. ss. intermedius (strain ATCC 33563), 2 nmol; with B. mel. ss. intermedius (strain NCTC 9336) it was 1 nmol; in the test with B. loescheii (strain ATCC 15930), 1 nmol; with B. loescheii (strain VPI4196), 1 nmol. Moreover, the Aminopeptidase activity in the test on B. asaccharolyticus (strain 536B) is 3 nmol; in the test on B. asaccharolyticus (strain ATCC 18569), 0 nmol; in the test on B. asaccharolyticus (strain ATCC 25260), 3 nmol; in the test on B. asaccharolyticus (strain ATCC 27067), 4 nmol; with B. asaccharolyticus (strain NY446), 0 nmol; in the test on Veillonella alcalesens it was 0 nmol.

Regarding `CC(C)C[C@H](N)C(=O)NCC(=O)O` [Leu-Gly, Leucyl-glycine] (H-Leu-Gly-OH), the Aminopeptidase activity worked out at 8 nmol in test [1]; 9 nmol in the test with B. mel. ss. intermedius (strain ATCC 25261); 2 nmol with B. mel. ss. intermedius (strain ATCC 33563); 11 nmol in the test with B. mel. ss. intermedius (strain NCTC 9336); 20 nmol in the test on B. loescheii (strain ATCC 15930); 58 nmol with B. loescheii (strain VPI4196). The Aminopeptidase activity in the test with B. asaccharolyticus (strain 536B) was 49 nmol; in the test with B. asaccharolyticus (strain ATCC 18569), 25 nmol; in the test with B. asaccharolyticus (strain ATCC 25260), 37 nmol; with B. asaccharolyticus (strain ATCC 27067), 51 nmol; in the test with B. asaccharolyticus (strain NY446), 0 nmol.

As to `NC(=O)[C@@H](N)CCC(=O)O` [α-Glu, α -glutamine], the Aminopeptidase activity in test [1] stood at 5 nmol; with B. mel. ss. intermedius (strain ATCC 25261), 0 nmol; in the test on B. mel. ss. intermedius (strain ATCC 33563) it was 0 nmol; with B. mel. ss. intermedius (strain NCTC 9336), 0 nmol; in the test on B. loescheii (strain ATCC 15930), 0 nmol; in the test on B. loescheii (strain VPI4196), 0 nmol. Further, the Aminopeptidase activity with B. asaccharolyticus (strain 536B), in the test with B. asaccharolyticus (strain ATCC 18569), with B. asaccharolyticus (strain ATCC 25260), in the test with B. asaccharolyticus (strain ATCC 27067), with B. asaccharolyticus (strain NY446) and in the test with Veillonella alcalesens was 0 nmol throughout.

As for `CSCCC(N)C(=O)Nc1ccc2ccccc2c1` (racemic), the Aminopeptidase activity was 122 nmol in test [1]; 0 nmol with B. mel. ss. intermedius (strain ATCC 25261); 0 nmol with B. mel. ss. intermedius (strain ATCC 33563); 0 nmol in the test on B. mel. ss. intermedius (strain NCTC 9336); 0 nmol with B. loescheii (strain ATCC 15930); 0 nmol in the test with B. loescheii (strain VPI4196). Besides, the Aminopeptidase activity was determined as 0 nmol in the test on B. asaccharolyticus (strain 536B); 0 nmol in the test on B. asaccharolyticus (strain ATCC 18569); 1 nmol with B. asaccharolyticus (strain ATCC 25260); 2 nmol in the test with B. asaccharolyticus (strain ATCC 27067); 0 nmol in the test on B. asaccharolyticus (strain NY446); 0 nmol in the test with Veillonella alcalesens.
